# Assays:
# [1] = humans, delivery to an infection site; cited from earlier work
# [2] = system: bacterial burden; details: "It has been shown", no test described; cited from earlier work
# [3] = Effect of varying oxygen concentrations on efficacy of 1000 ppm NO exposure; type: cell-based
# Description: Prior art devices for delivering NO to treat wounds have required a closed environment. […] The oxygen may be environmental oxygen or may be delivered via an oxygen generating component within the dressing or apparatus.
# The effect of various oxygen concentration levels on the efficacy of 1000 ppm treatment of NO was studied.
smiles,measurement,setting,value
"[N]=O [NO, Nitric oxide]",side-effects,[1],does not have significant side-effects
same,reduction of the bacterial burden,[2],5-6 log10 cfu/mL
same,CFU/mL,"[3]; 0% Oxygen, 2 hour","100,000 CFU/mL"
same,CFU/mL,"[3]; 0% Oxygen, 4 hour","100,000 CFU/mL"
same,CFU/mL,"[3]; 14.5% Oxygen, 2 hour",2730 CFU/mL
same,CFU/mL,"[3]; 14.5% Oxygen, 3 hour",78 CFU/mL
same,CFU/mL,"[3]; 14.5% Oxygen, 4 hour",0 CFU/mL
same,CFU/mL,"[3]; 21% Oxygen, 1 hour","100,000 CFU/mL"
same,CFU/mL,"[3]; 21% Oxygen, 2 hour","10,000 CFU/mL"
same,CFU/mL,"[3]; 21% Oxygen, 3 hour",0 CFU/mL
same,CFU/mL,"[3]; 21% Oxygen, 4 hour",0 CFU/mL

# Source: patent US20150297782A1, “NITRIC OXIDE-RELEASING DRESSINGS” (priority 2008, published 2015)
